From ChEMBL document CHEMBL5604062, “ASAP - ZIKV NS2B-NS3 protease fluorescence dose response” (2024) come the findings set out here.

“And” between values parts separate entries of the source, which are not always exact repeats. Equal entries are not always repeated. Bounds are passed on as bounds.

In the assay the target is Nonstructural protein 3 (Zika virus, UniProt A0A024AXB9). As to the kind of experiment: Functional biochemical assay to identify treatments for viral infectious disease that targets Zika NS2B-NS3 protease. Utilizing a direct enzyme activity measurement method, reading the fluorescence intensity is used to characterize the relative potency of inhibitors as IC50. More on the design: species or system PRVABC59.
Chain of Nonstructural protein 3 (A0A024AXB9 whole entry): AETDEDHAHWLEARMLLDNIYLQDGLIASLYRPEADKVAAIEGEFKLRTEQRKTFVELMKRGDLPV
For orientation: IC50 means the concentration at which inhibition is half-maximal. As to `c1ccc(COc2cccc3[nH]cc(CN4CCC(c5cscn5)CC4)c23)cc1`, the 50% inhibitory concentration (IC50) is > 99.5 µM.

On to `NCc1cccc([C@@H]2C[C@H]2c2cc(Cl)cc(NC(=O)OCc3ccccc3)c2)c1`, for which the half-inhibitory concentration (IC50) is 18.1 µM and 11.3 µM.

In the case of `c1ccc2c(CNCc3ccc(-c4cscn4)cc3)c[nH]c2c1`, the IC50 is 81 µM.

As for `Cn1cc(N2CCN(Cc3c[nH]c4ccccc34)CC2)cn1`, the IC50 was > 99.5 µM.

With `O=C(c1cccnc1)N1CCN(Cc2c[nH]c3ccccc23)CC1`, the IC50 is > 99.5 µM.

As to `O=C(Nc1cc(Cl)cc(C(=O)Nc2ncc3n2CCNC3)c1)OCc1ccccc1`, the IC50 is > 99.5 µM.

Compound `NCc1cccc(NC(=O)[C@@H]2[C@@H]3CCCCC[C@@H]3[C@@H]2NC(=O)OCc2ccccc2)c1` registered a concentration for half-maximal inhibition (IC50) of 54.7 µM.

On to `NC(=O)c1cnccc1N1CCN(Cc2c[nH]c3ccccc23)CC1`, for which the IC50 is > 99.5 µM.

Take `NCc1cccc(NC(=O)[C@@H](NC(=O)OCc2ccccc2)c2cccc(OCC3CCC3)c2)c1`: the IC50 is 27.3 µM.

Turning to `NCc1cccc(S(=O)(=O)Nc2cc(Cl)cc(NC(=O)OCc3ccccc3)c2)c1`, the IC50 was > 99.5 µM.

Regarding `NCc1ccccc1Oc1ccc(S(=O)(=O)Nc2ccc(Cl)cc2C(=O)O)cc1`, the half-maximal inhibitory concentration (IC50) was > 99.5 µM.

As for `CN(C)Cc1csc(NC(=O)[C@@H](NC(=O)OCc2ccccc2)c2ccc(OCc3ccccc3)cc2)n1`, the half-maximal inhibitory concentration (IC50) is > 99.5 µM.

As to `Cc1nc(COc2ccc([C@@H](NC(=O)OCc3ccccc3)C(=O)Nc3cccc(CN)c3)cc2)cs1`, the IC50 was > 99.5 µM.

As for `O=S(=O)(c1cccnc1)N1CCN(Cc2c[nH]c3ccccc23)CC1`, the concentration for half-maximal inhibition (IC50) was > 99.5 µM.

For `Fc1cc(F)c2[nH]cc(CN3CCC(c4cscn4)CC3)c2c1F`, the IC50 is > 99.5 µM.

Regarding `COc1c(C)cc(C(=O)Nc2cccc(CN)c2)cc1NC(=O)OCc1ccccc1`, the IC50 was > 99.5 µM.

Consider `COc1ccc(CN(C)C)cc1NC(=O)[C@@H](NC(=O)OCc1ccccc1)c1ccc(OCc2ccccc2)cc1`, for which the IC50 was > 99.5 µM.

With `CC(C)(C)OC(=O)Nc1cccc2[nH]cc(CN3CCC(c4cscn4)CC3)c12`, the IC50 is > 99.5 µM.

In the case of `Cn1nc2c(c1NC(=O)[C@@H](NC(=O)OCc1ccccc1)c1ccc(OCc3ccccc3)cc1)CNC2`, the IC50 is > 99.5 µM.

In turn, `Cc1c(NC(=O)OCc2ccccc2)cc(C(F)(F)F)cc1C(=O)Nc1cccc(CN)c1` showed an IC50 of 60.4 µM.

On to `c1ccc(COc2ccc3[nH]cc(CN4CCC(c5cscn5)CC4)c3c2)cc1`, for which the IC50 was > 99.5 µM.

Consider `O=C(Nc1cc(Cl)cc(C(=O)Nc2n[nH]c3c2CNC3)c1)OCc1ccccc1`, for which the IC50 was 40.3 µM.

In the case of `Cc1c[nH]nc1CN1CCC(c2cscn2)CC1`, the IC50 is > 99.5 µM.

In the case of `O=C(Nc1cc(Cl)cc(C(=O)Nc2ncc([C@H]3CCCN3)s2)c1)OCc1ccccc1`, the IC50 is > 99.5 µM.

For the compound `CC(C)(C)c1ccc2[nH]cc(CN3CCC(c4cscn4)CC3)c2c1`, the half-inhibitory concentration (IC50) is > 99.5 µM.

Turning to `CC(C)N1CCc2nc(NC(=O)c3cc(Cl)cc(NC(=O)OCc4ccccc4)c3)sc2C1`, the IC50 was > 99.5 µM.

For `CCc1cccc2c(CN3CCC(c4cscn4)CC3)c[nH]c12`, the IC50 is > 99.5 µM.

Consider `Cc1cc(NC(=O)OCc2ccccc2)cc(C(=O)Nc2cccc(CN)c2)c1C`, for which the IC50 is > 99.5 µM.

On to `COc1cc(Br)ccc1[C@@H](NC(=O)OCc1ccccc1)C(=O)Nc1cccc(CN)c1`, for which it took 68.9 µM to reach half-maximal inhibition (IC50). That is a double-digit micromolar value.

On to `CN(C)Cc1ccc(N2CCN(Cc3c[nH]c4ccccc34)CC2)nc1`, for which the IC50 is > 99.5 µM.

`c1ccc(-c2c[nH]nc2CN2CCC(c3cscn3)CC2)cc1`: the IC50 was > 99.5 µM.

Turning to `CC(C)(C)c1cc(CN2CCC(c3cscn3)CC2)n[nH]1`, the half-inhibitory concentration (IC50) was > 99.5 µM.

Regarding `CN(C)Cc1cc(NC(=O)[C@@H](NC(=O)OCc2ccccc2)c2ccc(OCc3ccccc3)cc2)ccc1Cl`, the IC50 was > 99.5 µM.

Regarding `Cc1ccc(NC(=O)OC(C)(C)C)c2[nH]cc(CN3CCC(c4cscn4)CC3)c12`, the IC50 is > 99.5 µM.

With `NCc1cccc(NC(=O)[C@@H](NC(=O)OCc2ccccc2)c2ccc(-c3cccc4nonc34)cc2)c1`, the IC50 was 6.42 µM.

In turn, `c1ccc(CC2CCN(Cc3c[nH]c4ccccc34)CC2)cc1` returned an IC50 of 89.6 µM.

On to `O=C1CN(Cc2c[nH]c3ccccc23)CCN1c1cccnc1`, for which the IC50 was > 99.5 µM.

Consider `COc1cc2c(CN3CCC(c4cscn4)CC3)c[nH]c2cc1Cl`, for which half-maximal inhibition (IC50) required 49.6 µM.

Regarding `c1cncc(N2CCCN(Cc3c[nH]c4ccccc34)CC2)c1`, the IC50 is > 99.5 µM.

On to `O=C(Nc1cc(Cl)cc(C(=O)Nc2cc3n(n2)CCNC3)c1)OCc1ccccc1`, for which the half-maximal inhibitory concentration (IC50) is > 99.5 µM.

`Clc1cc(Cl)c2c(CN3CCC(c4cscn4)CC3)c[nH]c2c1` showed an IC50 of 74.3 µM.

With `N#Cc1ccc2[nH]cc(CN3CCC(c4cscn4)CC3)c2c1`, the IC50 was 17.8 µM.

For `NCc1cccc(NC(=O)c2cc(Cl)cc(CNC(=O)OCc3ccccc3)c2)c1`, the midpoint of inhibition, the IC50, lay at 22.1 µM.

As for `c1ccc2c(CN3CC(c4cscn4)C3)c[nH]c2c1`, the IC50 was > 99.5 µM.

The compound `NCc1cccc(NC(=O)c2ccc(OCC(F)(F)F)c(NC(=O)OCc3ccccc3)c2)c1` gave a half-maximal inhibitory concentration (IC50) of 48.7 µM.

Consider `c1cc(-c2cc(CN3CCC(c4cscn4)CC3)n[nH]2)ccn1`, for which the half-inhibitory concentration (IC50) was > 99.5 µM.

For the compound `NCc1cccc(NC(=O)[C@@H](NC(=O)OCc2ccccc2)c2ccc(Br)c(Cl)c2)c1`, the IC50 was 9.66 µM and 8.77 µM.

In the case of `O=C(N[C@@H](C(=O)Nc1nc2c(s1)CNC2)c1ccc(OCc2ccccc2)cc1)OCc1ccccc1`, the IC50 was > 99.5 µM.

As to `N#Cc1cccc2c(CN3CCC(c4cscn4)CC3)c[nH]c12`, the IC50 is > 99.5 µM.

With `C1=C(c2cccnc2)CN(Cc2c[nH]c3ccccc23)CC1`, the IC50 was > 99.5 µM.

Consider `FC1(c2cccnc2)CN(Cc2c[nH]c3ccccc23)C1`, for which the IC50 was > 99.5 µM.

As to `Cc1ccc(CN(C)C)cc1NC(=O)[C@@H](NC(=O)OCc1ccccc1)c1ccc(OCc2ccccc2)cc1`, the IC50 was > 99.5 µM.

With `CN1CCn2nc(NC(=O)[C@@H](NC(=O)OCc3ccccc3)c3ccc(OCc4ccccc4)cc3)cc2C1`, the IC50 was > 99.5 µM.

In the case of `c1cncc([C@@H]2CN(Cc3c[nH]c4ccccc34)CCO2)c1`, the IC50 is > 99.5 µM.

In the case of `Cc1c(C(F)(F)F)n[nH]c1CN1CCC(c2cscn2)CC1`, the IC50 was > 99.5 µM.

`Cc1[nH]c2ccccc2c1CN1CCC(c2c[nH]c3ncccc23)CC1`: the midpoint of inhibition, the IC50, lay at 5.81 µM.

`O=C(Nc1cccnc1)C1CCN(Cc2c[nH]c3ccccc23)CC1` had an IC50 of 64.3 µM.

`O=C(N[C@@H](C(=O)Nc1ncc([C@H]2CCCN2)s1)c1ccc(OCc2ccccc2)cc1)OCc1ccccc1`: the IC50 was > 99.5 µM.

Consider `CN1CCc2nc(NC(=O)[C@@H](NC(=O)OCc3ccccc3)c3ccc(OCc4ccccc4)cc3)sc2C1`, for which the IC50 is > 99.5 µM.

On to `CN(Cc1cccnc1)Cc1c[nH]c2ccccc12`, for which the IC50 was > 99.5 µM.

Turning to `Cn1nc(NC(=O)c2cc(Cl)cc(NC(=O)OCc3ccccc3)c2)c2c1CNC2`, the IC50 was > 99.5 µM.

`c1ccc([C@H](NCc2c[nH]c3ccccc23)c2cccnc2)cc1`: the IC50 is > 99.5 µM.

Regarding `COCc1ccccc1Nc1ccc(S(=O)(=O)Nc2ccc(Cl)cc2C(=O)O)cn1`, it took 98.8 µM to reach half-maximal inhibition (IC50).

Consider `CC[C@@H](NCc1c[nH]c2ccccc12)c1cccnc1`, for which the IC50 was > 99.5 µM.

The compound `NCc1cccc(NC(=O)[C@H](NS(=O)(=O)Cc2ccccc2)c2ccc(OCc3ccccc3)cc2)c1` showed an IC50 of 64.5 µM.

On to `NCc1cccc(NC(=O)C[C@@H](NC(=O)OCc2ccccc2)c2ccc(Cl)c(Br)c2)c1`, for which the IC50 was 14.4 µM and 12.8 µM.
